In US20250011332A1, “PYRAZOLO FUSED RING COMPOUND AND USE THEREOF” (SOTER BIOPHARMA PTE. LTD., priority 2021, published 2025):

Tests used:
[1] = Pharmacokinetic (PK) test in mice; assay type: in vivo; details: mouse, plasma, male balb/c mice, intravenous 1 mg/kg, gavage 3 mg/kg
Method: The clear solution obtained after dissolving the test compound was administered to male mice (balb/c) via tail vein injection and gavage respectively. After administration of the test compound, blood samples were collected from mandibular veins for the intravenous injection group (1 mg/kg) at 0.083, 0.25, 0.5, 1, 2, 4, 8 and 24 h and for the gavage group (3 mg/kg) was at 0.25, 0.5, 1, 2, 4, 6, 8 and 24 h, respectively, and centrifuged to obtain plasma. The LC-MS/MS method was used to determine the blood drug concentration, and the WinNonlin™ Version 6.3 pharmacokinetic software was used to calculate the relevant pharmacokinetic parameters by the non-compartmental model linear logarithmic trapezoidal method.

[2] = tested on: IL-23 induced psoriasis-like skin lesions in mice; assay: In vivo drug efficacy test in mouse psoriasis model (IL-23 induced auricular epidermal dysplasia); set-up: species or system C57BL/6 mice; Ear comprehensive score: scale not given here; details: for Ear weight: end of experiment (Day 10), 8 mm punch
Description: Purpose: The purpose of this experiment is to evaluate the preventive and therapeutic effect of the test substance on IL-23 induced psoriasis-like skin lesions in mice through the psoriasis-like skin lesions model induced by intradermal injection of IL-23 into the mouse auricle.
Method: After the adaptation period of experimental animals, 50 mice were divided into 5 groups according to the Excel completely random grouping method, with 10 mice in each group, as follows: vehicle (0.5% MC & 0.5% Tween 80) control group, modeling group, compound 1 (10, 20, 50 mg/kg) group. Except for the vehicle control group, the animals in the other groups were intradermally injected with IL-23 (3 μg/10 μL/mouse/day, QD) in their right ears for 8 consecutive days (D1-D8). The animals in the control group were intradermally injected with an equal volume of physiological saline solution (10 μL/mouse/day, QD) in the right ear for 8 consecutive days (D1-D8). For the modeling group, the vehicle and test drug were administered orally at the same time, twice a day (Bid), with an interval of 6 h, for 8 consecutive days (D1-D8). During the dosing period, the animal body weight was monitored every two days. On D1, D3, D5, D7 (all before IL-23 injection), and D9, the thickness of the mouse right ear was measured and the auricle appearance was observed and scored. At the end of the experiment (Day 10), the ear on the side where the model was created was taken, and the ear was punched along the edge of the auricle with an 8 mm punch to obtain a piece of ear which was weighed. The piece of ear from the right ear was fixed with formalin and then subjected to histopathological examination (H&E) staining.

[3] = 10 mg/kg oral gavage Bid, day 1
[4] = 10 mg/kg oral gavage Bid, day 3
[5] = 10 mg/kg oral gavage Bid, day 5
[6] = 10 mg/kg oral gavage Bid, day 7
[7] = 10 mg/kg oral gavage Bid, day 9
[8] = 20 mg/kg oral gavage Bid, day 1
[9] = 20 mg/kg oral gavage Bid, day 3
[10] = 20 mg/kg oral gavage Bid, day 5
[11] = 20 mg/kg oral gavage Bid, day 7
[12] = 20 mg/kg oral gavage Bid, day 9
[13] = 50 mg/kg oral gavage Bid, day 1
[14] = 50 mg/kg oral gavage Bid, day 3
[15] = 50 mg/kg oral gavage Bid, day 5
[16] = 50 mg/kg oral gavage Bid, day 7
[17] = 50 mg/kg oral gavage Bid, day 9

Cn1cc(-c2cn3nccc3c(-c3cnn([C@]4(CC#N)CC5(C[C@H](C#N)C5)C4)c3)n2)cn1 (stereo partly drawn) [Compound 1]
bioavailability ([1]; oral): 88.7% | AUC(0-inf) [1]: 7.67 µM·h | clearance ([1]; read-out: Cl (clearance rate)): 15.6 mL/min/kg | Cmax ([1]; read-out: Cmax (peak concentration)): 3.04 µM | half-life ([1]; read-out: T1/2 (half-life) (converted)): 143 min | Vd ([1]; read-out: Vd (distribution volume)): 1.59 L/kg | Ear comprehensive score [2, 3]: 0.00 ± 0.00 | Ear thickness (mm) [2, 3]: 0.189 ± 0.006 mm | Weight [2, 3]: 19.77 ± 0.59 g | Ear comprehensive score [2, 4]: 0.00 ± 0.00 | Ear thickness (mm) [2, 4]: 0.287 ± 0.018 mm | Weight [2, 4]: 19.69 ± 0.57 g | Ear comprehensive score [2, 5]: 0.60 ± 0.52 | Ear thickness (mm) [2, 5]: 0.311 ± 0.013 mm | Weight [2, 5]: 20.02 ± 0.77 g | Ear comprehensive score [2, 6]: 1.70 ± 1.06 | Ear thickness (mm) [2, 6]: 0.373 ± 0.030 mm | Weight [2, 6]: 19.69 ± 0.63 g | Ear comprehensive score [2, 7]: 2.60 ± 1.43 | Ear thickness (mm) [2, 7]: 0.430 ± 0.048 mm | Weight [2, 7]: 20.04 ± 0.72 g | Ear weight ([2]; 10 mg/kg oral gavage Bid): 19.16 ± 1.56 mg | Ear comprehensive score [2, 8]: 0.00 ± 0.00 | Ear thickness (mm) [2, 8]: 0.190 ± 0.009 mm | Weight [2, 8]: 19.77 ± 0.54 g | Ear comprehensive score [2, 9]: 0.00 ± 0.00 | Ear thickness (mm) [2, 9]: 0.289 ± 0.028 mm | Weight [2, 9]: 19.85 ± 0.78 g | Ear comprehensive score [2, 10]: 0.60 ± 0.70 | Ear thickness (mm) [2, 10]: 0.306 ± 0.018 mm | Weight [2, 10]: 20.13 ± 0.78 g | Ear comprehensive score [2, 11]: 1.40 ± 0.52 | Ear thickness (mm) [2, 11]: 0.350 ± 0.025 mm | Weight [2, 11]: 19.80 ± 0.92 g | Ear comprehensive score [2, 12]: 1.50 ± 0.71 | Ear thickness (mm) [2, 12]: 0.381 ± 0.032 mm | Weight [2, 12]: 20.27 ± 0.90 g | Ear weight ([2]; 20 mg/kg oral gavage Bid): 18.76 ± 1.62 mg | Ear comprehensive score [2, 13]: 0.00 ± 0.00 | Ear thickness (mm) [2, 13]: 0.193 ± 0.006 mm | Weight [2, 13]: 19.78 ± 0.53 g | Ear comprehensive score [2, 14]: 0.00 ± 0.00 | Ear thickness (mm) [2, 14]: 0.279 ± 0.024 mm | Weight [2, 14]: 19.85 ± 0.68 g | Ear comprehensive score [2, 15]: 0.10 ± 0.32 | Ear thickness (mm) [2, 15]: 0.289 ± 0.025 mm | Weight [2, 15]: 20.41 ± 0.70 g | Ear comprehensive score [2, 16]: 1.40 ± 0.70 | Ear thickness (mm) [2, 16]: 0.338 ± 0.023 mm | Weight [2, 16]: 20.15 ± 0.56 g | Ear comprehensive score [2, 17]: 1.00 ± 0.47 | Ear thickness (mm) [2, 17]: 0.352 ± 0.032 mm | Weight [2, 17]: 20.28 ± 0.76 g | Ear weight ([2]; 50 mg/kg oral gavage Bid): 17.63 ± 1.47 mg
